Patent publication US8637252B2, “Methods and compositions for determining altered susceptibility of HIV-1 to anti-HIV drugs” (Monogram Biosciences, Inc., priority 2011, dated 2014)
Several values for one entry are separate records, joined by “and”; a condition that tells them apart may be missing. Equal entries are not always repeated.

Experiments:
[1] = test system: HIV-1 (patient-derived PR-RT segment); experiment: phenotypic drug resistance test, resistance test vectors with patient-derived PR-RT segment, luciferase, 293 cells; format: cell-based
Text: Patient-derived segments corresponding to the HIV protease and reverse transcriptase coding regions (hereinafter “PR-RT) were amplified by the reverse transcription-polymerase chain reaction method (RT-PCR) using viral RNA isolated from viral particles present in the plasma or serum of HIV-infected individuals as follows. Viral RNA was isolated from the plasma or serum using oligo-dT magnetic beads (Dynal Biotech, Oslo, Norway), followed by washing and elution of viral RNA. The RT-PCR protocol was divided into two steps. A retroviral reverse transcriptase (e.g. Moloney MuLV reverse transcriptase (Roche Molecular Systems, Inc., Branchburg, N.J.; Invitrogen, Carlsbad, Calif.), or avian myeloblastosis virus (AMV) reverse transcriptase, (Boehringer Mannheim, Indianapolis, Ind.)) was used to copy viral RNA into cDNA. The cDNA was then amplified using a thermostable DNA polymerase (e.g. Taq (Roche Molecular Systems, Inc., Branchburg, N.J.), Tth (Roche Molecular Systems, Inc., Branchburg, N.J.), PRIMEZYME. (enzyme_isolated from Thermus brockianus, Biometra, Gottingen, Germany)) or a combination of thermostable polymerases as described for the performance of “long PCR” (Barnes, W. M., 1994, Proc. Natl. Acad. Sci, USA 91, 2216-20) (e.g. Expand High Fidelity PCR System (Taq+Pwo), (Boehringer Mannheim. Indianapolis, Ind.); GENEAMP® XL PCR kit (PCR kit using_Tth+Vent), (Roche Molecular Systems, Inc., Branchburg, N.J.); or ADVANTAGE II®, Clontech, Palo Alto, Calif.)
PCR primers were designed to introduce ApaI and PinAl recognition sites into the 5′ or 3′ end of the PCR product, respectively.
Resistance test vectors incorporating the “test” patient-derived segments were constructed as described in U.S. Pat. No. 5,837,464 using an amplified DNA product of 1.5 kB prepared by RT-PCR using viral RNA as a template and oligonucleotides PDS Apa, PDS Age, PDS PCR6, Apa-gen, Apa-c, Apa-f, Age-gen, Age-a, RT-ad, RT-b, RT-c, RT-f, and/or RT-g as primers, followed by digestion with ApaI and Agel or the isoschizomer PinAl. To ensure that the plasmid DNA corresponding to the resultant fitness test vector comprises a representative sample of the HIV viral quasi-species present in the serum of a given patient, many (>250) independent E. coli transformants obtained in the construction of a given fitness test vector were pooled and used for the preparation of plasmid DNA.
A packaging expression vector encoding an amphotrophic MuLV 4070A env gene product enables production in a resistance test vector host cell comprising the vector alone viral particles which can efficiently infect human target cells. Vectors encoding all HIV genes with the exception of env were used to transfect a packaging host cell (once transfected the host cell is referred to as a fitness test vector host cell). The packaging expression vector which encodes the amphotrophic MuLV 4070A env gene product is used with the resistance test vector to enable production in the resistance test vector host cell of infectious pseudotyped resistance test vector viral particles.
Drug resistance tests performed with resistance test vectors were carried out using packaging host and target host cells consisting of the human embryonic kidney cell line 293.
Resistance tests were carried out with resistance test vectors using two host cell types. Resistance test vector viral particles were produced by a first host cell (the resistance test vector host cell) that was prepared by transfecting a packaging host cell with the resistance test vector and the packaging expression vector. The resistance test vector viral particles were then used to infect a second host cell (the target host cell) in which the expression of the indicator gene is measured.
The resistance test vectors containing a functional luciferase gene cassette were constructed as described above and host cells were transfected with the resistance test vector DNA. […]

[2] = test system: HIV-1 patient-derived test vectors with site-directed reverse transcriptase mutations; experiment: phenotypic drug resistance test, site-directed reverse transcriptase mutants in patient backgrounds; format: cell-based
Method: In addition, using conventional technique, the T369I mutation was introduced into a resistance test vector comprising PR-RT segment derived from patient sample 62, which comprises mutations A62V, Q102K, K103N, K122E, D123N, C162S, D177E, 1178L, M184V, T200A, Q207E, T215Y, P243S, V245Q, A272P and R277K in reverse transcriptase. Among these mutations, K103N correlates with resistance to a number of NNRTIs, including NVP. This patient sample was tested for resistance to an NNRTI using the methods described above.
(§1) To further analyze the effects of N348I, T369I, and E399D on NNRTI resistance, an additional series of site directed mutants was constructed in non-wild-type backgrounds. In particular, site-directed mutants comprising the N348I, T369I, or E399D mutation were constructed in POL-containing test vectors obtained from three different patient samples. Results from these experiments are presented as FIG. 11.
as §1, with “on AZT” for “on NNRTI”, “the N3481,” for “the N348I,”, “from two” for “from three”, “samples.” for “samples. Results from these experiments are presented as FIG. 11.”

[3] = Sample 47 (K103K/N, V106V/A, Y181Y/C, G190G/A)
[4] = Sample 58 (K103N, Y181Y/C, G190G/A)
[5] = Sample 62 (K103H, P225P/H, T369T/I)
[6] = Sample 90 (K103K/N, Y181C, G190A)
[7] = E399D mutation, patient 50 background
[8] = E399D mutation, patient 58 or patient 62 background
[9] = N348I and T369I mutations, POL test vectors of patients 50, 58, 62

SMILES | fold change in IC50, PR-RT ([1]; Sample 31 (K103N)) [fold] | fold change in IC50, PR-RT ([1]; Sample 33 (K103S)) [fold] | fold change in IC50, PR-RT ([1]; Sample 34) [fold] | fold change in IC50, PR-RT ([1]; Sample 35 (K103H)) [fold] | fold change in IC50, PR-RT ([1]; Sample 36 (K103K/W)) [fold] | fold change in IC50, PR-RT ([1]; Sample 38 (K103N)) [fold] | fold change in IC50, PR-RT ([1]; Sample 39 (T369A)) [fold] | fold change in IC50, PR-RT ([1]; Sample 42 (G190G/A)) [fold] | fold change in IC50, PR-RT ([1]; Sample 45) [fold] | fold change in IC50, PR-RT [1, 3] [fold] | fold change in IC50, PR-RT ([1]; Sample 50 (K103N)) [fold] | fold change in IC50, PR-RT ([1]; Sample 51) [fold] | fold change in IC50, PR-RT ([1]; Sample 52) [fold] | fold change in IC50, PR-RT [1, 4] [fold] | fold change in IC50, PR-RT [1, 5] | fold change in IC50, PR-RT ([1]; Sample 64 (T369T/A)) [fold] | fold change in IC50, PR-RT ([1]; Sample 69) [fold] | fold change in IC50, PR-RT ([1]; Sample 72) [fold] | fold change in IC50, PR-RT ([1]; Sample 80 (K103K/N, Y181Y/C)) [fold] | fold change in IC50, PR-RT ([1]; Sample 81 (K103N, P225H)) [fold] | further results
O=C1Nc2ccc(Cl)cc2[C@@](C#CC2CC2)(C(F)(F)F)O1 [EFV, efavirenz] | 22.8 | 7.1 | 0.4 | 9.3 | 6.7 | 42.0 | 0.3 | 3.1 | 0.2 | 123.9 | 63.2 | 0.5 | 1.3 | 26.4 | 20 fold and 20.0 fold and 20.00 fold | 1.1 | 0.8 | 0.5 | 11.0 | 98.0 | fold change in IC50, PR-RT ([1]; Sample 84): 0.7 fold; fold change in IC50, PR-RT ([1]; Sample 85): 22.0 fold; fold change in IC50, PR-RT ([1]; Sample 87): 0.9 fold; fold change in IC50, PR-RT ([1]; Sample 89 (L1001, K103N)): 700.0 fold; fold change in IC50, PR-RT [1, 6]: 50.5 fold; fold change in IC50, PR-RT ([1]; Sample 92): 1.0 fold; fold change in IC50, PR-RT ([1]; Sample 93): 0.8 fold; change in resistance on addition of mutation [2, 7]: increased; change in resistance on addition of mutation [2, 8]: not; change in resistance on addition of mutation [2, 9]: increased resistance
Cc1ccnc2c1NC(=O)c1cccnc1N2C1CC1 [NVP, nevirapine] | 88.4 | 23.3 | 0.3 | 25.2 | 13.0 | 114.0 | 0.3 | 34.0 | 0.3 | 400.0 | 153.9 | 0.4 | 2.0 | 400.0 | 64 fold and 64.0 fold and 64.00 fold | 1.0 | 1.0 | 0.7 | 46.0 | 92.0 | fold change in IC50, PR-RT ([1]; Sample 84): 0.8 fold; fold change in IC50, PR-RT ([1]; Sample 85): 131.7 fold; fold change in IC50, PR-RT ([1]; Sample 87): 0.8 fold; fold change in IC50, PR-RT ([1]; Sample 89 (L1001, K103N)): 37.0 fold; fold change in IC50, PR-RT [1, 6]: 400.0 fold; fold change in IC50, PR-RT ([1]; Sample 92): 1.1 fold; fold change in IC50, PR-RT ([1]; Sample 93): 1.6 fold; change in resistance on addition of mutation [2, 7]: increased; change in resistance on addition of mutation [2, 8]: not; change in resistance on addition of mutation [2, 9]: increased resistance; resistance of test vector ([2]; T369I introduced into PR-RT segment of patient sample 62 (contains K103N)): enhanced resistance
CC(C)Nc1cccnc1N1CCN(C(=O)c2cc3cc(NS(C)(=O)=O)ccc3[nH]2)CC1 [DLV, delavirdine] | 16.4 | 8.7 | 0.5 | 6.5 | 6.7 | 128.0 | 0.2 | 0.4 | 0.1 | 6.2 | 250.0 | 0.3 | 3.1 | 149.6 | 16.0 fold and 16.00 fold | 1.6 | 1.4 | 0.9 | 65.0 | 12.0 | fold change in IC50, PR-RT ([1]; Sample 84): 0.9 fold; fold change in IC50, PR-RT ([1]; Sample 85): 25.2 fold; fold change in IC50, PR-RT ([1]; Sample 87): 0.7 fold; fold change in IC50, PR-RT ([1]; Sample 89 (L1001, K103N)): 250.0 fold; fold change in IC50, PR-RT [1, 6]: 4.1 fold; fold change in IC50, PR-RT ([1]; Sample 92): 1.1 fold; fold change in IC50, PR-RT ([1]; Sample 93): 0.3 fold; change in resistance on addition of mutation [2, 7]: increased; change in resistance on addition of mutation [2, 8]: not; change in resistance on addition of mutation [2, 9]: increased resistance
